Results on seven molecules are retold here after patent publication US4564627A, “Feed composition” (Nihon Nohyaku Co., Ltd., priority 1982, dated 1986).

SMILES strings stand for the structures. “Also recorded” adds a separate entry of the source.

The nature of one series: LD50 mouse (male). As to conditions: in vivo. The text has this:
Examples of the compounds represented by the general formula [1] according to this invention and their toxicities are shown below.

The subject of series [1] is broilers. In words: Crude fat content in liver of broilers (Test Example 1). The format is in vivo, "A A Fuji" broilers (chicken). On the procedure: (§1) To each group consisting of 30 "A A Fuji" broilers (15 male, 15 female), a commercially available early period broiler feed (crumble form, Cp 22%, ME 3,030 kcal/kg) was given from beginning of feeding to 4 week age, and a latter period broiler feed (mash form, Cp 18%, ME 3,030 kcal/kg) was given ad libitum from 4 week age to 10 week age. The test period was from Oct. 10, 1981 through Dec. 20, 1981. Addition of test compounds to the above feeds in predetermined concentrations was conducted from 3 week age through the completion of the test.
(§2) Five broilers at 6 week age, five broilers at 8 week age and ten broilers at 10 week age were taken out from each group and slaughtered. Immediately after slaughtering, they were cooled in water for about 2 hr and the body weight of each slaughtered broiler was measured and subsequently they were stored at 2° C. for about 20 hr. Then, in order to measure abdominal fat, mesentary fat was removed and fat adhered to from gizzard to proventriculus was collected and weighed as the weight of abdominal fat. This weight was divided by body weight to obtain abdominal fat deposit per 100 g of body weight. Further, liver fat was also collected and weighed. A liver under freeze storage was cut into slices in a total quantity of 2 to 3 g. The slices were placed in a cylindrical filter paper and weighed. Then, these slices were dried for 3 hr in a hot air drier kept at 90° C. and subsequently extracted for 17 hr with ethyl ether in a Soxhlet fat extractor. After drying the extract for 3 hr at 60° C. and weighing the residue, crude fat content in liver was calculated.

Series [2] is described as follows: Feed consumption of broilers (Test Example 1). The series is classed as in vivo, "A A Fuji" broilers (chicken). As to conditions: 2,400 ppm in feed. The procedure: as §1
Feed consumption was calculated by weighing feeds left at the time of body weight measurement, and therefrom feed conversion ratio was calculated.

Series [3] deals with laying hens. In words: Thickness of eggshell of laying hens (Test Example 2). The series is classed as in vivo. The text has this: (§3) As test hens, commercially available laying hens of 480 day age were used. The control group fed with a feed not containing any compound of this invention consisted of 100 laying hens, and each test group fed with a feed containing a compound of this invention consisted of 10 laying hens. The test was repeated twice. The test period was 16 weeks from Nov. 17, 1981 to Mar. 8, 1982. The first 4 weeks from the start was a preliminary observation period, during which each group was controlled so as to give the same egg production rate. As the feed, a commercially available feed for laying hens (Cp 16% or above, ME 2,800 kcal/kg or above) was used. From the 5th week, predetermined quantities of test compounds were uniformly added to this feed and the resulting blended feeds were given to test groups. Feeds and water were given ad libitum. Constant lighting was made for 14 hr a day. Egg production rate was daily recorded for each individual hen and egg weight for each test group. Feed intake quantity was obtained by calculating on every other week a difference between quantity fed and quantity left. For examining egg quality, strength of eggshell and thickness of eggshell were measured for all normal eggs laid during a period of the previous day of measurement to 3 P.M. of the measurement day. Strength of eggshell was measured by a FHK eggshell strength tester model FN-597, and thickness of eggshell by a dial thickness gauge.

Series [4] has as its system broilers. Briefly: Abdominal fat deposit of broilers (Test Example 1). The format is in vivo, "A A Fuji" broilers (chicken). The procedure:
as §1, §2

In series [5] the test system is laying hens. In words: Strength of eggshell of laying hens (Test Example 2). The format is in vivo.
Description: as §3

A short description of series [6]: Growth of body weight of broilers (Test Example 1). As to conditions: for Body weight at week age 0: week age 0 (before addition); for Body weight at week age 3: week age 3 (start of addition). The format is in vivo, "A A Fuji" broilers (chicken). On the procedure:
as §1
(1) Growth of body weight
[…] All broilers were measured and an average body weight was calculated for each group.

Series [7] in a line: Feed intake of laying hens (Test Example 2). The series is classed as in vivo. The following applies: 2,500 ppm in feed.
Description: as §3, with “Constant lighting was made for 14 hr a day.” left out

Usually LD50 stands for the dose expected to kill half of the subjects tested. Read a high LD50 as a less toxic substance.

`CCOC(=O)C(C(=O)OCC)=C1SC=CS1` [compound 5] displayed an LD50 in “LD50 mouse (male)” of 4900 mg/kg.

Take `CC(C)OC(=O)C(C(=O)OC(C)C)=C1SC(C(=O)O)S1` (stereo not shown): the LD50 in “LD50 mouse (male)” is above 5000 mg/kg.

Regarding `CC(C)OC(=O)C(C(=O)OC(C)C)=C1SCC[S+]1[O-]` (stereo not shown) [compound 7], in “LD50 mouse (male)”, the LD50 is above 6000 mg/kg.

`CC(C)OC(=O)C(C(=O)OC(C)C)=C1SCS1` [compound 1] had an LD50 in “LD50 mouse (male)” above 5000 mg/kg.

On to `CC(C)OC(=O)C(C(=O)OC(C)C)=C1SCC(O)S1` (stereo not shown) [compound 8], for which, in “LD50 mouse (male)”, the LD50 is above 6590 mg/kg.

As to `CC(C)OC(=O)C(C(=O)OC(C)C)=C1SC=CS1` [compound 4], the “Crude fat content in liver” value in the series on broilers [1] (6w, 200 ppm in feed) is 2.20%; with broilers [1] (6w, 400 ppm in feed), 2.06%; with broilers [1] (6w, 800 ppm in feed), 2.17%; in the series on broilers [1] (6w, 2,400 ppm in feed), 2.11%; with broilers [1] (8w, 200 ppm in feed), 5.23%; in the series on broilers [1] (8w, 400 ppm in feed) it was 5.02%. In addition, the “Crude fat content in liver” value was determined as 4.62% in the series with broilers [1] (8w, 800 ppm in feed); 4.04% with broilers [1] (8w, 2,400 ppm in feed); 4.47% in the series on broilers [1] (10w, 200 ppm in feed); 4.29% in the series on broilers [1] (10w, 400 ppm in feed); 4.25% in the series on broilers [1] (10w, 800 ppm in feed); 3.96% in the series on broilers [1] (10w, 2,400 ppm in feed). Besides, the “Feed consumption (in words)” value in series [2] was “significant reduction of feed consumption”. In addition, the Eggshell thickness turned out to be 0.345 mm in the series with laying hens [3] (509th day, 100 ppm in feed); 0.342 mm with laying hens [3] (509th day, 500 ppm in feed); 0.336 mm in the series on laying hens [3] (509th day, 2,500 ppm in feed); 0.343 mm with laying hens [3] (555th day, 100 ppm in feed); 0.350 mm with laying hens [3] (555th day, 500 ppm in feed); 0.347 mm in the series with laying hens [3] (555th day, 2,500 ppm in feed). The Eggshell thickness is reported as 0.342 mm with laying hens [3] (612th day, 100 ppm in feed); 0.345 mm in the series with laying hens [3] (612th day, 500 ppm in feed); 0.344 mm in the series on laying hens [3] (612th day, 2,500 ppm in feed). Moreover, the Abdominal fat deposit with broilers [4] (6w, 200 ppm in feed) is recorded as 3.20 g/100 g; in the series on broilers [4] (6w, 400 ppm in feed), 3.02 g/100 g; in the series on broilers [4] (6w, 800 ppm in feed) it was 2.93 g/100 g; in the series on broilers [4] (6w, 2,400 ppm in feed), 2.92 g/100 g; with broilers [4] (8w, 200 ppm in feed), 3.55 g/100 g; in the series with broilers [4] (8w, 400 ppm in feed), 3.18 g/100 g. In addition, the Abdominal fat deposit in the series with broilers [4] (8w, 800 ppm in feed) stood at 3.22 g/100 g; with broilers [4] (8w, 2,400 ppm in feed), 3.15 g/100 g; with broilers [4] (10w, 200 ppm in feed) it was 3.83 g/100 g; in the series with broilers [4] (10w, 400 ppm in feed) it was 3.78 g/100 g; with broilers [4] (10w, 800 ppm in feed), 3.37 g/100 g; in the series on broilers [4] (10w, 2,400 ppm in feed), 3.22 g/100 g. Moreover, the Eggshell strength in the series on laying hens [5] (509th day, 100 ppm in feed) was found to be 2.47 kg; in the series with laying hens [5] (509th day, 500 ppm in feed) it was 2.46 kg; in the series on laying hens [5] (509th day, 2,500 ppm in feed), 2.44 kg; in the series with laying hens [5] (555th day, 100 ppm in feed) it was 2.88 kg; with laying hens [5] (555th day, 500 ppm in feed) it was 2.93 kg; in the series with laying hens [5] (555th day, 2,500 ppm in feed) it was 2.97 kg. Besides, the Eggshell strength in the series on laying hens [5] (612th day, 100 ppm in feed) is recorded as 2.97 kg; in the series on laying hens [5] (612th day, 500 ppm in feed), 3.02 kg; in the series on laying hens [5] (612th day, 2,500 ppm in feed), 3.08 kg. The molecule also had an LD50 in “LD50 mouse (male)” (unit printed kg/mg) of 3120 mg/kg. The “Growth of body weight (in words)” value in series [6] (broilers, 2,400 ppm in feed) is on record as “badly affected; also recorded: lower growth of body weight”. In addition, the “Body weight at week age 0” value in series [6] (200 ppm in feed from 3 week age), in series [6] (400 ppm in feed from 3 week age), in series [6] (800 ppm in feed from 3 week age) and in series [6] (2,400 ppm in feed from 3 week age) was 41 g each time. The “Body weight at week age 3” value was 620 g in series [6] (200 ppm in feed), 626 g in series [6] (400 ppm in feed), 625 g in series [6] (800 ppm in feed) and 621 g in series [6] (2,400 ppm in feed). Moreover, the “Body weight at week age 4” value in series [6] (200 ppm in feed) is given as 981 g; in series [6] (400 ppm in feed), 985 g; in series [6] (800 ppm in feed), 984 g; in series [6] (2,400 ppm in feed), 974 g. Further, the “Body weight at week age 5” value was 1,341 g in series [6] (200 ppm in feed), 1,346 g in series [6] (400 ppm in feed), 1,330 g in series [6] (800 ppm in feed) and 1,316 g in series [6] (2,400 ppm in feed). Moreover, the “Body weight at week age 6” value in series [6] (200 ppm in feed) is given as 1,661 g; in series [6] (400 ppm in feed), 1,667 g; in series [6] (800 ppm in feed), 1,662 g; in series [6] (2,400 ppm in feed), 1,640 g. For the same molecule, the “Body weight at week age 7” value is 2,090 g in series [6] (200 ppm in feed), 2,102 g in series [6] (400 ppm in feed), 2,065 g in series [6] (800 ppm in feed) and 2,003 g in series [6] (2,400 ppm in feed). Besides, the “Body weight at week age 8” value in series [6] (200 ppm in feed) is recorded as 2,502 g; in series [6] (400 ppm in feed), 2,512 g; in series [6] (800 ppm in feed), 2,496 g; in series [6] (2,400 ppm in feed), 2,388 g. For the same molecule, the “Body weight at week age 9” value in series [6] (200 ppm in feed) is reported as 2,860 g; in series [6] (400 ppm in feed), 2,874 g; in series [6] (800 ppm in feed), 2,871 g; in series [6] (2,400 ppm in feed), 2,796 g. In addition, the “Body weight at week age 10” value was 3,105 g in series [6] (200 ppm in feed), 3,115 g in series [6] (400 ppm in feed), 3,098 g in series [6] (800 ppm in feed) and 2,984 g in series [6] (2,400 ppm in feed). In series [7], the “Feed intake (in words)” value is on record as “a lower value was seen with significance”.

For the molecule `CCOC(=O)C(C(=O)OC(C)C)=C1SCS1` [compound 2], in “LD50 mouse (male)”, the 50% lethal dose (LD50) was above 5000 mg/kg.
